Measured values published in paper PMC9076072 (RSC Advances, 2019).

Test system: RAW 264.7 macrophages
Assay: Macrophage cytotoxicity seen in the anti-inflammatory assay

Structure (SMILES)	Concentration at which macrophage cytotoxicity appeared [µM]
C=C(C)[C@@H]1CC[C@]2(C(=O)O)CC[C@]3(C)[C@H](CC[C@@H]4[C@@]5(C)CC[C@H](O)C(C)(C)[C@@H]5CC[C@]43C)[C@@H]12 [Compound 1, Betulinic acid]	20
C[C@H]1[C@H](C)CC[C@]2(C(=O)O)CC[C@]3(C)C(=CC[C@@H]4[C@@]5(C)CC[C@H](O)C(C)(C)[C@@H]5CC[C@]43C)[C@H]12 [Compound 2, Ursolic acid]	20
